Marks after values point to notes of the source that are not given here.
How the values were obtained:
[1] = tested on: conscious cynomolgus monkeys; experiment: Cardiovascular side effects (blood pressure, heart rate) after i.v. administration; type: in vivo, cynomolgus monkey; settings: up to 6 hours, + with * = increase from base levels
From the text: Cardiovascular measurements were made in a different group of monkeys using a BP 100S automated sphygmomanometer (Nippon Colin,. Japan).

[2] = biological target: T1, rat α2B (RNG gene) receptor (Rattus norvegicus, UniProt P19328); experiment: RSAT (Receptor Selection and Amplification Technology) assay, alpha 2B; type: cell-based; settings: ratio of maximal effect to that of standard full agonist oxymetazoline
T1 construct: expressed in transfected cells; host or cells: NIH-3T3 cells, calcium phosphate cotransfection
T1 sequence (P19328 1-453): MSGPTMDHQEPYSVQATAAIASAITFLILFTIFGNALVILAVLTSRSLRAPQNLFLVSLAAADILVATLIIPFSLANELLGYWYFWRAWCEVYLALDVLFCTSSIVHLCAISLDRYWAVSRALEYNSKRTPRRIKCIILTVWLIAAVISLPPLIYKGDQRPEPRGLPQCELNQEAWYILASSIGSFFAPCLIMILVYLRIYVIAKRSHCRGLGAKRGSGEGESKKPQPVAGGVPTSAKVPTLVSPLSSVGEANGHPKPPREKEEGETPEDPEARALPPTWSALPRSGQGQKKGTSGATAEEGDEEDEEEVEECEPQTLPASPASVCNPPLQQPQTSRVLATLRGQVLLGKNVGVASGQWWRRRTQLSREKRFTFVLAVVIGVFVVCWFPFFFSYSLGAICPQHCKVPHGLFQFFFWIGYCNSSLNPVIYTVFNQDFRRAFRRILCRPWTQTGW
Outline: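 NIH-3T3 cells transiently cotransfected with receptor, hybrid Gq/i5 protein and β-galactosidase marker were incubated with compound dilutions in triplicate for 72-96 hr at 37°. Proliferation was read as β-galactosidase activity (o-nitrophenyl-β-D-galactopyranoside, overnight at 30°, OD 420 nm). EC50 and efficacy were derived, the latter relative to a standard full agonist's maximal effect.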

[3] = tested on: cynomolgus monkeys with sustained elevated IOP; experiment: IOP lowering in conscious monkeys, eyes made hypertensive by argon laser photocoagulation; type: in vivo, cynomolgus monkey; settings: Macaca fascicularis, topical, 6 h, single 50 μl eye drop, up to 6 hours, read-out: Maximum % Decrease From Pretreatment Levels Hypertensive Eye (IOP); for inhibition in vivo at 0.3 %: ocular dose 0.3%; for inhibition in vivo at 1 %: ocular dose 1%
From the text: Measurements of IOP were made in fully conscious female cynomolgus monkeys weighing 3-4 kg with sustained elevated IOP that was produced in the right eye by argon laser photocoagulation of the trabecular meshwork. Animals were usable for experiments 2 months following surgery. During the experiments, monkeys sat in specially designed chairs (Primate Products, San Francisco), and were fed orange juice and fruit as needed. A 30R model Digilab pneumatonometer (Alcon, Tex.) was used to measure IOP.
Twenty five μl of an anesthetic (proparacaine) was topically applied to each monkey before IOP measurements to minimize ocular discomfort due to tonometry. Two baseline measurements were made prior to instillation of the drugs, followed by periodic measurements up to 6 hours post-instillation. The test compounds were administered unilaterally as a single 50 μl eye drop; the contralateral eyes received an equal volume of saline.

[4] = tested on: conscious cynomolgus monkeys; experiment: Sedation score during the IOP experiments; type: in vivo, cynomolgus monkey; design: key to Sedation (0-4): 0=alert, typical vocalization, movement, etc.; 1=calm, less movement; 2=slightly sedated, some vocalization, responsive to stimulation; 3=sedated, no vocalization, some response to stimulation; 4=asleep
Protocol: At the same time, sedation was measured and assessed according to the following score: 0=alert, typical vocalization, movement, etc.; 1=calm, less movement; 2=slightly sedated, some vocalization, responsive to stimulation; 3=sedated, no vocalization, some response to stimulation; 4=asleep.

[5] = tested on: rats; experiment: Sedative activity measured using an activity chamber; type: in vivo, rat; settings: for Sedation (%): 30 minutes after dosing; for sedation (in words): intrathecal or intraperitoneal, rats
From the text: (§1) Alleviation of pain including neuropathic pain is another example of a disorder in which the compounds of the invention are useful and advantageous since pain is alleviated without undesirable side effects. […] (See, for example, Kim, S. and Chung, J. “An experimental model for peripheral neuropathy produced by segmental spinal nerve ligation in the rat.” Pain 50 pp. 355-363 (1992).) Following ligation of two spinal nerves, the animals develop a sensitivity to normally non-painful stimuli such as touch. The ability of alpha2 compounds to reverse this sensitivity, called allodynia, was tested 30 minutes after dosing by either intrathecal or intraperitoneal administration. The sedative activity of each compound was also measured using an activity chamber.

[6] = tested on: rats with ligation of two spinal nerves; experiment: Spinal nerve ligation model of neuropathic pain, reversal of tactile allodynia; type: in vivo, rat; settings: for Reversal of Tactile Allodynia (%): 30 minutes after dosing
From the text: as §1

Intrinsic Activity Relative to Oxymetazoline, Alpha 2B [2]	Compound	Maximum % Decrease From Pretreatment Levels, Heart Rate ([1]; i.v. 17 μg/kg)	Maximum % Decrease From Pretreatment Levels, Mean Arterial Blood Pressure ([1]; i.v. 17 μg/kg)	Maximum % Decrease From Pretreatment Levels, Heart Rate ([1]; i.v. 50 μg/kg)	Maximum % Decrease From Pretreatment Levels, Mean Arterial Blood Pressure ([1]; i.v. 50 μg/kg)	Maximum % Decrease From Pretreatment Levels, Heart Rate ([1]; i.v. 167 μg/kg)	Maximum % Decrease From Pretreatment Levels, Mean Arterial Blood Pressure ([1]; i.v. 167 μg/kg)	inhibition in vivo at 0.3 % [3]	inhibition in vivo at 1 % [3]	Sedation (0-4) ([4]; ocular dose 0.3%)	Sedation (0-4) ([4]; ocular dose 1%)	Maximum % Decrease From Pretreatment Levels, Heart Rate ([1]; i.v. 500 μg/kg)	Maximum % Decrease From Pretreatment Levels, Mean Arterial Blood Pressure ([1]; i.v. 500 μg/kg)	sedation (in words) [5]	Reversal of Tactile Allodynia (%) ([6]; intraperitoneal 3 mg/kg)	Reversal of Tactile Allodynia (%) ([6]; intraperitoneal 30 mg/kg)	further results
0.83	CN1CCOc2ccc(N=C3NCCN3)cc21 [Example E-1, imidazolidin-2-ylidene-(4-methyl-3,4-dihydro-2H-benzo[1,4]oxazin-6-yl) amine]	11 ± 4%	7 ± 4%	14 ± 5%	7 ± 2%	11 ± 5%	9 ± 4%	25 ± 4%	27 ± 3%	0	0						
0.83	c1nc(CC2CCCCC2)c[nH]1 [Example J-1, 4(5)-cyclohexylmethyl-1H-imidazole]	13 ± 4%	7 ± 5.3%	6 ± 2%	4 ± 2%	3 ± 3%	7 ± 5%		26 ± 5%		0	7 ± 4%	13 ± 3%				inhibition in vivo at 3 % ([3]; ocular dose 3%): 33 ± 3%; Sedation (0-4) ([4]; ocular dose 3%): 0
0.75	Cl.O=C1C2=C(CCCC2)CCC1Cc1c[nH]cn1 (centres unmarked) [Example N-1, 2-(1H-imidazol-4(5)-ylmethyl)-3,4,5,6,7,8-hexahydro-2H-naphthalen-1-one, hydrochloride salt]													without causing sedation, even at very high doses	3%	41* %	Sedation (%) ([5]; intraperitoneal 10,000 mg/kg): 0%; Sedation (%) ([5]; intrathecal 30 μg): 0%; Sedation (%) ([5]; intrathecal 300 μg): 0%; Reversal of Tactile Allodynia (%) ([6]; intrathecal 3 μg): 13%; Reversal of Tactile Allodynia (%) ([6]; intrathecal 30 μg): 64* %; alleviation of allodynia (in words) ([6]; intrathecal or intraperitoneal, rats): able to alleviate the allodynia
	Brc1c(NC2=NCCN2)ccc2nccnc12 [brimonidine, reference compound]	52 ± 3%	36 ± 3%	54 ± 3%	37 ± 5%			40 ± 4%		2				cause sedation at doses only slightly higher than their anti-allodynic doses	0%	37* %	Sedation (%) ([5]; intraperitoneal 30 mg/kg): 24%; Sedation (%) ([5]; intraperitoneal 300 mg/kg): 67* %; inhibition in vivo at 0.1 % ([3]; ocular dose 0.1%): 25 ± 3%; sedation (in words) ([4]; ocular administration, monkeys): caused sedation; Sedation (0-4) ([4]; ocular dose 0.1%): 1

Compound	Intrinsic Activity Relative to Oxymetazoline, Alpha 2B [2]	Maximum % Decrease From Pretreatment Levels, Heart Rate ([1]; i.v. 17 μg/kg)	Maximum % Decrease From Pretreatment Levels, Mean Arterial Blood Pressure ([1]; i.v. 17 μg/kg)	Maximum % Decrease From Pretreatment Levels, Heart Rate ([1]; i.v. 50 μg/kg)	Maximum % Decrease From Pretreatment Levels, Mean Arterial Blood Pressure ([1]; i.v. 50 μg/kg)	Maximum % Decrease From Pretreatment Levels, Heart Rate ([1]; i.v. 167 μg/kg)	Maximum % Decrease From Pretreatment Levels, Mean Arterial Blood Pressure ([1]; i.v. 167 μg/kg)	inhibition in vivo at 0.3 % [3]	inhibition in vivo at 1 % [3]	Sedation (0-4) ([4]; ocular dose 0.3%)	Sedation (0-4) ([4]; ocular dose 1%)	Maximum % Decrease From Pretreatment Levels, Heart Rate ([1]; i.v. 500 μg/kg)	Maximum % Decrease From Pretreatment Levels, Mean Arterial Blood Pressure ([1]; i.v. 500 μg/kg)	sedation (in words) [5]	Reversal of Tactile Allodynia (%) ([6]; intraperitoneal 3 mg/kg)	Reversal of Tactile Allodynia (%) ([6]; intraperitoneal 30 mg/kg)	further results
c1ccc2c(c1)CC[C@H](Cc1c[nH]cn1)C2 [Example J-2, (S)-4(5)-(1,2,3,4-tetrahydronaphthalen-2-ylmethyl)-1H-imidazole]	0.8									0		6.4 ± 3.3%	+0.6 ± 3.1* %				inhibition in vivo at 0.03 % ([3]; ocular dose 0.03%): 12.4 ± 3.7%; Sedation (0-4) ([4]; ocular dose 0.03%): 0
Cc1[nH]cnc1Cc1ccc2c(c1)OCCO2 [M, 4-(2,3-dihydrobenzo[1,4]dioxin-6-ylmethyl)-5-methyl-1H-imidazole]	0.97								22.5 ± 5.4%		0	5.5 ± 1.9%	0.8 ± 2.3%				
